Species on record: Rattus norvegicus
Assay: Open TG-GATES - Regimen: Single
Format: toxicity, organism-based, Sprague-Dawley
Set-up: regimen Single, gender Male, age 6 weeks
Details: in vivo, po, 0 mg/kg, route gavage, dose level Control; for APTT / Bas / Eos / Fbg / Hb / Ht / Lym / MCH / MCHC / MCV / Mono / Neu / PT / Plat / RBC / Ret / WBC: tissue Blood; for KIDNEY_L / KIDNEY_R / KIDNEY_TOTAL: tissue Kidney; for LIVER: tissue Liver; for A/G / ALP / ALT / AST / BUN / CRE / Ca / Cl / DBIL / GLC / IP / K / LDH / Na / PL / RALB / TBIL / TC / TG / TP / gamma-GTP: tissue Plasma

CC(C)NNC(=O)c1ccncc1 [IPRONIAZID]
TERMINAL_BW (3 h): 208.3 g
APTT (3 h): 21.1 s
Bas (3 h): 0%
Eos (3 h): 0.6%
Fbg (3 h): 318.8 mg/dL
Hb (3 h): 13.3 g/dL
Ht (3 h): 38.7%
Lym (3 h): 82.2%
MCH (3 h): 21.3 pg
MCHC (3 h): 34.3%
MCV (3 h): 62.1 fL
Mono (3 h): 1.6%
Neu (3 h): 15%
PT (3 h): 16.4 s
Plat (3 h): 108.8 x10_4/uL
RBC (3 h): 624.6 x10_4/ul
Ret (3 h): 7.2%
WBC (3 h): 72.6 x10_2/uL
KIDNEY_L (3 h): 0.9 g
KIDNEY_R (3 h): 0.9 g
KIDNEY_TOTAL (3 h): 1.9 g
LIVER (3 h): 9.7 g
A/G (3 h): 1.3
ALP (3 h): 1798.2 IU/L
ALT (3 h): 41.4 IU/L
AST (3 h): 78.6 IU/L
BUN (3 h): 13.6 mg/dL
CRE (3 h): 0.2 mg/dL
Ca (3 h): 10.8 mg/dL
Cl (3 h): 107.6 meq/L
DBIL (3 h): 0.004 mg/dL
GLC (3 h): 190.2 mg/dL
IP (3 h): 8 mg/dL
K (3 h): 4.1 meq/L
LDH (3 h): 225 IU/L
Na (3 h): 142.4 meq/L
PL (3 h): 136.4 mg/dL
RALB (3 h): 3.1 g/dL
TBIL (3 h): 0.022 mg/dL
TC (3 h): 75.4 mg/dL
TG (3 h): 53.2 mg/dL
TP (3 h): 5.5 g/dL
gamma-GTP (3 h): 1.2 IU/L
TERMINAL_BW (6 h): 208.9 g
APTT (6 h): 23.2 s
Bas (6 h): 0%
Eos (6 h): 0.8%
Fbg (6 h): 305.8 mg/dL
Hb (6 h): 13.3 g/dL
Ht (6 h): 38.6%
Lym (6 h): 79.4%
MCH (6 h): 21.5 pg
MCHC (6 h): 34.3%
MCV (6 h): 62.5 fL
Mono (6 h): 2.4%
Neu (6 h): 16.6%
PT (6 h): 15.6 s
Plat (6 h): 115.7 x10_4/uL
RBC (6 h): 618.8 x10_4/ul
Ret (6 h): 8.7%
WBC (6 h): 96.2 x10_2/uL
KIDNEY_L (6 h): 0.9 g
KIDNEY_R (6 h): 1 g
KIDNEY_TOTAL (6 h): 1.9 g
LIVER (6 h): 9 g
A/G (6 h): 1.3
ALP (6 h): 1530.2 IU/L
ALT (6 h): 38.6 IU/L
AST (6 h): 71.6 IU/L
BUN (6 h): 11.2 mg/dL
CRE (6 h): 0.2 mg/dL
Ca (6 h): 10.6 mg/dL
Cl (6 h): 105.8 meq/L
DBIL (6 h): 0.006 mg/dL
GLC (6 h): 180 mg/dL
IP (6 h): 9.3 mg/dL
K (6 h): 4.3 meq/L
LDH (6 h): 179.8 IU/L
Na (6 h): 141.4 meq/L
PL (6 h): 140.6 mg/dL
RALB (6 h): 3 g/dL
TBIL (6 h): 0.02 mg/dL
TC (6 h): 75.6 mg/dL
TG (6 h): 62.6 mg/dL
TP (6 h): 5.3 g/dL
gamma-GTP (6 h): 1 IU/L
TERMINAL_BW (9 h): 200.8 g
APTT (9 h): 22.6 s
Bas (9 h): 0%
Eos (9 h): 1%
Fbg (9 h): 314.5 mg/dL
Hb (9 h): 12.9 g/dL
Ht (9 h): 37.8%
Lym (9 h): 75.5%
MCH (9 h): 21.4 pg
MCHC (9 h): 34.3%
MCV (9 h): 62.6 fL
Mono (9 h): 2%
Neu (9 h): 20.5%
PT (9 h): 15.7 s
Plat (9 h): 110.7 x10_4/uL
RBC (9 h): 605.5 x10_4/ul
Ret (9 h): 8.4%
WBC (9 h): 86.5 x10_2/uL
KIDNEY_L (9 h): 0.9 g
KIDNEY_R (9 h): 0.9 g
KIDNEY_TOTAL (9 h): 1.9 g
LIVER (9 h): 8.5 g
A/G (9 h): 1.2
ALP (9 h): 1450.5 IU/L
ALT (9 h): 41.2 IU/L
AST (9 h): 76.5 IU/L
BUN (9 h): 10.5 mg/dL
CRE (9 h): 0.2 mg/dL
Ca (9 h): 10.3 mg/dL
Cl (9 h): 107 meq/L
DBIL (9 h): 0.005 mg/dL
GLC (9 h): 178.2 mg/dL
IP (9 h): 9.8 mg/dL
K (9 h): 4 meq/L
LDH (9 h): 172.2 IU/L
Na (9 h): 141.8 meq/L
PL (9 h): 135 mg/dL
RALB (9 h): 3 g/dL
TBIL (9 h): 0.0175 mg/dL
TC (9 h): 81.8 mg/dL
TG (9 h): 39.8 mg/dL
TP (9 h): 5.5 g/dL
gamma-GTP (9 h): 1.2 IU/L
TERMINAL_BW (24 h): 216 g
APTT (24 h): 21.7 s
Bas (24 h): 0%
Eos (24 h): 1%
Fbg (24 h): 333.2 mg/dL
Hb (24 h): 13.5 g/dL
Ht (24 h): 39.1%
Lym (24 h): 77.8%
MCH (24 h): 21.4 pg
MCHC (24 h): 34.4%
MCV (24 h): 62.3 fL
Mono (24 h): 3%
Neu (24 h): 17.6%
PT (24 h): 16.7 s
Plat (24 h): 124 x10_4/uL
RBC (24 h): 627 x10_4/ul
Ret (24 h): 7.8%
WBC (24 h): 113.7 x10_2/uL
KIDNEY_L (24 h): 1 g
KIDNEY_R (24 h): 1 g
KIDNEY_TOTAL (24 h): 1.9 g
LIVER (24 h): 10.3 g
A/G (24 h): 1.2
ALP (24 h): 1519.2 IU/L
ALT (24 h): 39.8 IU/L
AST (24 h): 76.8 IU/L
BUN (24 h): 17.2 mg/dL
CRE (24 h): 0.2 mg/dL
Ca (24 h): 10.9 mg/dL
Cl (24 h): 107.6 meq/L
DBIL (24 h): 0.002 mg/dL
GLC (24 h): 179.6 mg/dL
IP (24 h): 7.6 mg/dL
K (24 h): 4.4 meq/L
LDH (24 h): 287.6 IU/L
Na (24 h): 142.6 meq/L
PL (24 h): 152.8 mg/dL
RALB (24 h): 3.1 g/dL
TBIL (24 h): 0 mg/dL
TC (24 h): 82.2 mg/dL
TG (24 h): 84.4 mg/dL
TP (24 h): 5.6 g/dL
gamma-GTP (24 h): 1.8 IU/L

— ChEMBL document CHEMBL3885861, “Open TG-GATES”
